Values joined by “and” are separate entries in the source; they are usually repeats but may differ in a detail not shown here. Identical values can stand only once.
Key:
[1] = target: T1, recombinant rat α1β2γ2 GABAA receptors (Rattus norvegicus, UniProt P62813); assay: Whole-cell patch-clamp, modulation of GABA (EC20)-induced currents in transfected HEK 293 cells, α1β2γ2; assay type: cell-based
T1 construct: expressed in transfected cells; host or cells: HEK 293
Protocol: (§1) For electrophysiological recording HEK-293 cells were passaged and replated on 12-mm glass coverslips located in 9.6-cm plastic dishes filled with 10 ml of Minimum Essential Medium (MEM, Gibco) supplemented with 158 mg/l sodium bicarbonate, 2 mM glutamine (Gibco), 100 U/ml penicillin-streptomycin (Gibco), and 10% foetal calf serum (Gibco). Cultures were maintained at 37° C. in a humidified […]/5% CO2 atmosphere for 2-3 days.
(§2) Transfection with recombinant rat GABAA receptors was carried out as described in detail (Korpi and Lüddens, 1993, Lüddens and Korpi, 1995b). Briefly, HEK 293 cells were transfected in triple combinations using the phosphate precipitation method with rat GABAA receptor cDNAs in eukaryotic expression vectors (Pritchett, 1990) for the α, β and γ subunits. For optimal receptor expression, final concentrations (μg vector DNA per 9.6 cm tissue culture plate) were: α1, 2; α2 4.8; α3, 1.2; α4, 10; α5, 0.8; β2, 0.4; and γ2S, 0.3. The γ2S variant is abbreviated γ2 in the remainder of the text. To identify transfected cells all subunit combinations were co-transfected with 1 μg per plate of pNI-EGFP.
(§3) Two days after transfection single coverslips containing HEK 293 cells were placed in a recording chamber mounted on the movable stage of a fluorescence microscope (Olympus IX70) and perfused with a defined saline solution containing (in mM): 130 NaCl, 5.4 KCl, 2 CaCl2, 2 MgSO4, 10 glucose, 5 sucrose, and 10 HEPES (free acid), pH adjusted to 7.35 with about 35 mM NaOH. Transfected cells were identified by their green fluorescence due to the expression of the pNI-EGFP vector and ligand-mediated membrane currents of these cells were studied in the whole-cell configuration of the patch-clamp technique (Hamil et al., 1981). Patch-clamp pipettes were pulled from hard borosilicate capillary glass (0.5 mm ID, 1.5 mm OD, Vitrex, Science Products GmbH, Hofheim, Germany) using a horizontal puller (Sutter Instruments, CA, Model P-97) in a multi-stage process.
(§4) Seal resistances >1 GΩ were routinely obtained by applying gentle suction to the pipettes. Membrane rupture was monitored electrically as an increase in capacity. Pipette capacitance, membrane capacitance, and series resistance were electronically compensated to achieve minimal capacitative transients. A series resistance compensation of >60% was regularly used.
(§5) In all cells recorded the presence of the γ2 subunit in the heteropentamere was monitored by the application of 1 μM zolpidem plus the EC20 of GABA before testing the experimental drugs.
(§6) Responses of the cells were recorded by a patch-clamp amplifier (EPC-8, HEKA-Electronic, Lambrecht, Germany) in conjunction with a standard personal computer and the pClamp 8.1 software package (Axon Instruments, Foster City, Calif.). The standard holding-potential for the cells was −40 mV. Whole cell currents were low-pass filtered by an eight-pole Bessel filter at 5 or 3 kHz before being digitised by a Digidata 1322A interface (Axon Instruments, Foster City, Calif.) and recorded by the computer at a sampling rate of at least […].
(§7) Efficacy, potency, and GABAA receptor a subunit specificity of the new compound ELB139 was tested with the whole cell configuration of the patch-clamp technique by applying increasing drug concentration together with GABA of the approximate EC20 on green fluorescing cells. BZ binding site specificity of the new compound was tested on the same cells in an identical experimental setting with additionally applying 10 μM Ro15-1788.

locomotor activity = settings: open field test and different animal models of anxiety; cited from earlier work
[2] = target: T2, recombinant rat α5β2γ2 GABAA receptors (Rattus norvegicus, UniProt P19969); assay: Whole-cell patch-clamp, modulation of GABA (EC20)-induced currents in transfected HEK 293 cells, α5β2γ2; assay type: cell-based
T2 construct: expressed in transfected cells; host or cells: HEK 293
Protocol: as §1, §2, §3, §4, §5, §6, §7

serotonine transporters = assay: Uptake of serotonine in a synaptosomal preparation; assay type: biochemical
[3] = test system: dt^sz mutant Syrian golden hamsters; assay: Genetic hamster model of paroxysmal dystonia, triple stimulation; assay type: in vivo, Syrian golden hamster
Protocol: Drug testing was performed at the maximal sensitivity of the hamsters for induction of dystonic attacks, i.e. between 30 and 40 days of age. Dystonic attacks were induced by a triple stimulation technique: The hamsters were taken from their home cage and placed on a balance (to determine body weight), were then injected i.p. with saline (control) or drug, and immediately placed individually in a new and empty plastic cage. Dystonic attacks started within a few minutes after placing the hamsters in the new plastic cage.
The final stage persisted for two to five hours, but rapid recovery occurred thereafter.
A first group of animals (n=8) was tested for ocurrence and severity of dystonic attacks at the age of 32-33 days after administration of vehicle (i.p.) as well as after performing the triple stimulation procedure as described above. Two or three days later, the same animals received E131-00139 i.p. and were again observed for 3 hours and again 2-3 days later the animals were re-tested after vehicle administration to serve as post dose control. […] The first stack represents the first hour of observation statring with drug administration, the second stack of bars represents the second hour of observation and the third stack the third hour.
The first (open) bar represents the control response of the animals recorded 2-3 days prior to the drug test, the black bar represents the results obtained after drug administration and the third (gray) bar represents the post drug control tested 2-3 days after the drug administration. The pre-and post test was used to exclude that a reduction of severity of stages was only due to a reduction in sensitivity for the induction of dystonic attacks is age dependent.

[4] = target: T3, recombinant rat α3β2γ2 GABAA receptors (Rattus norvegicus, UniProt P20236); assay: Whole-cell patch-clamp, modulation of GABA (EC20)-induced currents in transfected HEK 293 cells, α3β2γ2; assay type: cell-based
T3 construct: expressed in transfected cells; host or cells: HEK 293
Protocol: as §1, §2, §3, §4, §5, §6, §7

T3 sequence (P20236 29-493): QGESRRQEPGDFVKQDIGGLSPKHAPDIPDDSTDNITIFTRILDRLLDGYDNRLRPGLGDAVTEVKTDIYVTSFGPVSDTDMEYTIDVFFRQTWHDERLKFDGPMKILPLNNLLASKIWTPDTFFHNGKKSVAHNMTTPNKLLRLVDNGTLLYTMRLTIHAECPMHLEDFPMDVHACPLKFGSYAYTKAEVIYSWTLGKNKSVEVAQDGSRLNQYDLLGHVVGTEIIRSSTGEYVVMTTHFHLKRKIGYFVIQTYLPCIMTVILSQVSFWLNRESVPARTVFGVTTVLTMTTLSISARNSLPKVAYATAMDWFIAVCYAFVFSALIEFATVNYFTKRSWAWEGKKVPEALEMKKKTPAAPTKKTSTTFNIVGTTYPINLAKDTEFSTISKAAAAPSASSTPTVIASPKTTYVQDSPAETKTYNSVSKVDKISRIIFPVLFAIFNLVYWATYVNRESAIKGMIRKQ
T1 sequence (P62813 28-455): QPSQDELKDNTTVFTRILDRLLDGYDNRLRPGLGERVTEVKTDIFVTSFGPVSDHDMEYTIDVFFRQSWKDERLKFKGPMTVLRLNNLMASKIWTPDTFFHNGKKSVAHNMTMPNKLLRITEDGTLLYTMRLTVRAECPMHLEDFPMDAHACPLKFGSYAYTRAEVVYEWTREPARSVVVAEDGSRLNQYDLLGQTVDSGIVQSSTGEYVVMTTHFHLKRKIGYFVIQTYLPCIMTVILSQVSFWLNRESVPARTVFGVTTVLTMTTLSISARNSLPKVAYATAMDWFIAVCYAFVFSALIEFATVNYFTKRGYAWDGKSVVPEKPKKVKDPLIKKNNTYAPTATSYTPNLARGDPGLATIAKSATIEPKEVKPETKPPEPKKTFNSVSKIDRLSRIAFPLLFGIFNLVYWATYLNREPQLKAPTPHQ
T2 sequence (P19969 32-464 limits assumed): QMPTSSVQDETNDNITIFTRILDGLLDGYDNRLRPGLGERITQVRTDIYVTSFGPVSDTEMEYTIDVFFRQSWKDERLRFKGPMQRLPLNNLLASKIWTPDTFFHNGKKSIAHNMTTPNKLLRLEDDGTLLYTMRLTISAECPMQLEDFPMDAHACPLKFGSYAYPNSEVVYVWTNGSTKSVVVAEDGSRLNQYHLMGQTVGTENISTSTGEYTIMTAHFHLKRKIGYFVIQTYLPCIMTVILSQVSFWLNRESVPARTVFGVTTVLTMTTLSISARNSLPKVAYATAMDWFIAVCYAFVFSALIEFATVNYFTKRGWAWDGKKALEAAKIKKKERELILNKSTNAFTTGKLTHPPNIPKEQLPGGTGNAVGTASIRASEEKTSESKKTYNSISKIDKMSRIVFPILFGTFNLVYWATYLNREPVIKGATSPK

Q: What does the source list for `O=C1N=C(N2CCCCC2)CN1c1ccc(Cl)cc1` [ELB139, 1-(4-chlorophenyl)-4-piperidinoimidazolin-2-one]?
A: concentration at which positive current modulation was observable ([1]; α1-containing receptors): 0.3 µM; maximal positive modulation of GABA-induced current ([1]; α1-containing receptors, maximum at 30 μM (ELB139), at 1 μM (diazepam)): 1.6±0.08 fold and 1.6 fold; concentration at which significant agonistic effects were noticeable ([1]; α1β2γ2): about 1 μM; EC50 ([1]; α1β2γ2, applied with approximate GABA EC20, read-out: EC50 (ELB139)): 3.8 µM; effect of 10 μM Ro15-1788 on the current enhancement by the compound ([1]; α1β2γ2, co-applied 10 μM Ro15-1788 (flumazenil)): completely abolished; Potentiation* (ELB139) ([1]; α1β2γ2, with GABA EC20, graphically determined): 1.6 ± 0.08; locomotor activity (locomotor activity): did not show a significant reduction; EC50 ([2]; applied with approximate GABA EC20, read-out: EC50 (ELB139)): 3.6 µM; effect of 10 μM Ro15-1788 on the current enhancement by the compound ([2]; co-applied 10 μM Ro15-1788 (flumazenil)): completely abolished; maximal positive modulation of GABA-induced current ([2]; maximum at 30 μM (ELB139), at 1 μM (diazepam)): 1.4±0.06 fold and 1.4 fold; Potentiation* (ELB139) ([2]; with GABA EC20, graphically determined): 1.4 ± 0.06; uptake of serotonine (serotonine transporters): no effect; antidystonic activity ([3]; 5 mg/kg i.p.): still a significant antidystonic activity was present; tolerability and sedation ([3]; 10 mg/kg i.p.): well tolerated and no sedation was observed; severity of the dystonic attack ([3]; 10 mg/kg i.p., total observation period 3 h): significantly reduced; concentrations at which positive current modulation was observable ([4]; α3-containing receptors): above 30 nM; highest efficacy / maximal stimulation of GABA-induced current ([4]; α3-containing receptors, ELB139 at concentrations above 0.3 μM, diazepam at 1 μM): 1.3±0.07 fold and 1.3 fold; effect of 10 μM Ro15-1788 on the current enhancement by the compound ([4]; α3β2γ2, co-applied 10 μM Ro15-1788 (flumazenil)): completely abolished; Potentiation* (ELB139) ([4]; α3β2γ2, with GABA EC20, graphically determined): 1.3 ± 0.07; EC50 ([4]; α3β2γ2, with GABA EC20, value marked * = graphically determined, read-out: EC50 (ELB139)): 0.06 µM

Source: US20050032863A1, “Method of treating or preventing central nervous system disorders with compounds having selectivity for the alpha 3 subunit of the benzodiazepine receptor” (priority 2003, published 2005)
